# In PubChem BioAssay (NCI):
#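 GI50 marks 50% less growth. The concentration for full growth arrest is given as TGI.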
# Experiments:
# Test in all cases: NCI-60 cell line screen, 384-well format
# [1] = system: PC-3 prostate
# [2] = system: MDA-MB-468 breast
# [3] = system: CCRF-CEM leukemia
# [4] = system: KM12 colon
# [5] = system: SW-620 colon
# [6] = system: SK-OV-3 ovarian
# [7] = system: NCI-H23 lung
# [8] = system: SK-MEL-5 melanoma
# [9] = system: HL-60(TB) leukemia
# [10] = system: HOP-62 NSCLC
# [11] = system: SNB-19 CNS
# [12] = system: NCI-H226 lung
# [13] = system: SK-MEL-28 melanoma
# [14] = system: ACHN renal
# [15] = system: SR leukemia
# [16] = system: NCI/ADR-RES ovarian
# [17] = system: HCT-116 colon
# [18] = system: SK-MEL-2 melanoma
# [19] = system: NCI-H322M lung
# [20] = system: HCT-15 colon
# [21] = system: SF-295 CNS
# [22] = system: LOX IMVI melanoma
# [23] = system: RPMI-8226 leukemia
# [24] = system: UACC-62 melanoma
# [25] = system: T-47D breast
# [26] = system: MDA-MB-435 melanoma
# [27] = system: OVCAR-4 ovarian
# [28] = system: DU-145 prostate
# [29] = system: EKVX NSCLC
# [30] = system: 786-0 renal
# [31] = system: A549 NSCLC
# [32] = system: BT-549 breast
# [33] = system: SN12C renal
# [34] = system: HOP-92 NSCLC
# [35] = system: SF-268 CNS
# [36] = system: HT29 colon
# [37] = system: OVCAR-8 ovarian
# [38] = system: MCF7 breast
# [39] = system: RXF 393 renal
# [40] = system: HCC-2998 colon
# [41] = system: NCI-H460 NSCLC
# [42] = system: MDA-MB-231 breast
# [43] = system: MALME-3M melanoma
# [44] = system: SNB-75 CNS
# [45] = system: COLO 205 colon
# [46] = system: UACC-257 melanoma
# [47] = system: K-562 leukemia
compound,measurement,setting,value
CCCS(=O)(=O)Nc1ccc(F)c(C(=O)c2c[nH]c3ncc(-c4ccc(Cl)cc4)cc23)c1F,GI50,[1],8.55 µM
same,TGI,[1],21.3 µM
same,GI50,[2],5.74 µM
same,TGI,[2],9.38 µM
same,GI50,[3],4.15 µM
same,TGI,[3],6.41 µM
same,GI50,[4],4.11 µM
same,TGI,[4],13.1 µM
same,GI50,[5],4.61 µM
same,TGI,[5],23.3 µM
same,GI50,[6],5.57 µM
same,TGI,[6],12 µM
same,GI50,[7],4.19 µM
same,TGI,[7],13.2 µM
same,GI50,[8],0.0794 µM
same,TGI,[8],1.81 µM
same,GI50,[9],0.902 µM
same,TGI,[9],5.03 µM
same,GI50,[10],5.12 µM
same,TGI,[10],14.9 µM
same,GI50,[11],8.27 µM
same,TGI,[11],23.4 µM
same,GI50,[12],7.95 µM
same,TGI,[12],17.2 µM
same,GI50,[13],0.0274 µM
same,TGI,[13],0.388 µM
same,GI50,[14],5.39 µM
same,TGI,[14],19.5 µM
same,GI50,[15],1.67 µM
same,TGI,[15],4.22 µM
same,GI50,[16],9.06 µM
same,TGI,[16],22.4 µM
same,GI50,[17],3.85 µM
same,TGI,[17],11.5 µM
same,GI50,[18],0.0758 µM
same,TGI,[18],0.33 µM
same,GI50,[19],4.65 µM
same,TGI,[19],16 µM
same,GI50,[20],5.83 µM
same,TGI,[20],13.5 µM
same,GI50,[21],3.34 µM
same,TGI,[21],5.93 µM
same,GI50,[22],3.93 µM
same,TGI,[22],11.6 µM
same,GI50,[23],3.38 µM
same,TGI,[23],6.5 µM
same,GI50,[24],0.0345 µM
same,TGI,[24],0.912 µM
same,GI50,[25],6.77 µM
same,TGI,[25],16.9 µM
same,GI50,[26],0.281 µM
same,TGI,[26],14.6 µM
same,GI50,[27],8.45 µM
same,TGI,[27],20.6 µM
same,GI50,[28],5.88 µM
same,TGI,[28],18.6 µM
same,GI50,[29],7 µM
same,TGI,[29],12.7 µM
same,GI50,[30],4.03 µM
same,TGI,[30],13.5 µM
same,GI50,[31],3.99 µM
same,TGI,[31],10.8 µM
same,GI50,[32],5.9 µM
same,TGI,[32],19.2 µM
same,GI50,[33],8.1 µM
same,TGI,[33],22.5 µM
same,GI50,[34],4.98 µM
same,TGI,[34],12.1 µM
same,GI50,[35],7.88 µM
same,TGI,[35],15.8 µM
same,GI50,[36],0.146 µM
same,TGI,[36],10.4 µM
same,GI50,[37],7.8 µM
same,TGI,[37],15.7 µM
same,GI50,[38],6.82 µM
same,TGI,[38],13.3 µM
same,GI50,[39],2.36 µM
same,TGI,[39],6.45 µM
same,GI50,[40],0.593 µM
same,TGI,[40],1.96 µM
same,GI50,[41],4.97 µM
same,TGI,[41],13.6 µM
same,GI50,[42],3.8 µM
same,TGI,[42],8.85 µM
same,GI50,[43],0.0242 µM
same,TGI,[43],0.0897 µM
same,GI50,[44],5.79 µM
same,TGI,[44],13.3 µM
same,GI50,[45],0.0425 µM
same,TGI,[45],1.18 µM
same,GI50,[46],0.347 µM
same,GI50,[47],1.66 µM
same,TGI,[47],3.43 µM
